Reference: PubChem BioAssay (NCI)
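1) Cells in 96-well plates. 2) Compound, 48 h, 5 concentrations. 3) Linear interpolation between surrounding doses. 4) Unreached endpoint = highest concentration. The concentration for full growth arrest is given as TGI.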

How the values were obtained:
Assay in all cases: NCI-60 cell line screen, 48 h
HOP-62 NSCLC = system: HOP-62 NSCLC
UO-31 renal = system: UO-31 renal
SK-MEL-28 melanoma = system: SK-MEL-28 melanoma
A498 renal = system: A498 renal
DLD-1 colon = system: DLD-1 colon
MOLT-4 leukemia = system: MOLT-4 leukemia
COLO 205 colon = system: COLO 205 colon
M19-MEL melanoma = system: M19-MEL melanoma
NCI-H522 lung = system: NCI-H522 lung
SF-268 CNS = system: SF-268 CNS
M14 melanoma = system: M14 melanoma
HL-60(TB) leukemia = system: HL-60(TB) leukemia
OVCAR-4 ovarian = system: OVCAR-4 ovarian
CAKI-1 renal = system: CAKI-1 renal
HOP-92 NSCLC = system: HOP-92 NSCLC
NCI-H226 lung = system: NCI-H226 lung
SNB-75 CNS = system: SNB-75 CNS
SK-MEL-2 melanoma = system: SK-MEL-2 melanoma
HCC-2998 colon = system: HCC-2998 colon
LXFL 529 NSCLC = system: LXFL 529 NSCLC
DMS 114 small cell lung = system: DMS 114 small cell lung
RXF-631 renal = system: RXF-631 renal
XF 498 CNS = system: XF 498 CNS
HCT-116 colon = system: HCT-116 colon
SR leukemia = system: SR leukemia
K-562 leukemia = system: K-562 leukemia
ACHN renal = system: ACHN renal
IGROV1 ovarian = system: IGROV1 ovarian
SF-539 CNS = system: SF-539 CNS
786-0 renal = system: 786-0 renal
UACC-62 melanoma = system: UACC-62 melanoma
CCRF-CEM leukemia = system: CCRF-CEM leukemia
NCI-H23 lung = system: NCI-H23 lung
MALME-3M melanoma = system: MALME-3M melanoma
SN12C renal = system: SN12C renal
SNB-78 CNS = system: SNB-78 CNS
DMS 273 small cell lung = system: DMS 273 small cell lung
SK-OV-3 ovarian = system: SK-OV-3 ovarian
RXF 393 renal = system: RXF 393 renal
TK-10 renal = system: TK-10 renal
KM20L2 colon = system: KM20L2 colon
OVCAR-3 ovarian = system: OVCAR-3 ovarian
HT29 colon = system: HT29 colon
UACC-257 melanoma = system: UACC-257 melanoma
HOP-18 NSCLC = system: HOP-18 NSCLC
SNB-19 CNS = system: SNB-19 CNS
U251 CNS = system: U251 CNS
KM12 colon = system: KM12 colon
OVCAR-8 ovarian = system: OVCAR-8 ovarian
SK-MEL-5 melanoma = system: SK-MEL-5 melanoma
RPMI-8226 leukemia = system: RPMI-8226 leukemia
HCT-15 colon = system: HCT-15 colon
SW-620 colon = system: SW-620 colon
NCI-H460 lung = system: NCI-H460 lung
OVCAR-5 ovarian = system: OVCAR-5 ovarian
LOX IMVI melanoma = system: LOX IMVI melanoma
SF-295 CNS = system: SF-295 CNS
A549 NSCLC = system: A549 NSCLC
EKVX NSCLC = system: EKVX NSCLC

With `Cc1ccc(NC(=O)c2c(C)nc(=O)n3c2N(/N=C/c2ccc(Cl)cc2)CC3)cc1` the TGI (HOP-62 NSCLC) was 33.1 µM, the TGI (UO-31 renal) was 24 µM and the TGI (SK-MEL-28 melanoma) was 31.2 µM. It also gave a TGI (A498 renal) of 33.1 µM, a TGI (DLD-1 colon) of 30.7 µM and a TGI (MOLT-4 leukemia) of 82 µM. It also gave a TGI (COLO 205 colon) of 54.8 µM, a TGI (M19-MEL melanoma) of 37 µM and a TGI (NCI-H522 lung) of 24 µM. For the same molecule, the TGI (SF-268 CNS) was 29.2 µM, the TGI (M14 melanoma) was 31.5 µM and the TGI (HL-60(TB) leukemia) was 48.7 µM. The TGI (OVCAR-4 ovarian) was 32 µM, the TGI (CAKI-1 renal) was 32.1 µM and the TGI (HOP-92 NSCLC) was 36.6 µM. The TGI (NCI-H226 lung) was 33.3 µM, the TGI (SNB-75 CNS) was 34.1 µM and the TGI (SK-MEL-2 melanoma) was 34.7 µM. For the same molecule, the TGI (HCC-2998 colon) was 32.3 µM, the TGI (LXFL 529 NSCLC) was 31.6 µM and the TGI (DMS 114 small cell lung) was 55.1 µM. The TGI (RXF-631 renal) was 30.6 µM, the TGI (XF 498 CNS) was 34.1 µM and the TGI (HCT-116 colon) was 26.4 µM. For the same molecule, the TGI (SR leukemia) was greater than 100 µM, the TGI (K-562 leukemia) was greater than 100 µM and the TGI (ACHN renal) was 33.8 µM. It also gave a TGI (IGROV1 ovarian) of 36.2 µM, a TGI (SF-539 CNS) of 25 µM and a TGI (786-0 renal) of 33.8 µM. The TGI (UACC-62 melanoma) was 28.2 µM, the TGI (CCRF-CEM leukemia) was greater than 100 µM and the TGI (NCI-H23 lung) was 29.2 µM. It also gave a TGI (MALME-3M melanoma) of 40.1 µM, a TGI (SN12C renal) of 30.6 µM and a TGI (SNB-78 CNS) of 40.5 µM. For the same molecule, the TGI (DMS 273 small cell lung) was 43.9 µM and the TGI (SK-OV-3 ovarian) was 39.7 µM.
Work on `O=C(Nc1nc2ncn(CCI)c2c(=O)[nH]1)c1ccccc1` yielded a TGI (HOP-62 NSCLC) greater than 81.1 µM, a TGI (UO-31 renal) greater than 100 µM and a TGI (RXF 393 renal) of 59.3 µM. It also gave a TGI (TK-10 renal) greater than 100 µM, a TGI (SK-MEL-28 melanoma) greater than 100 µM and a TGI (A498 renal) of 83.3 µM. The TGI (KM20L2 colon) was greater than 100 µM, the TGI (OVCAR-3 ovarian) was greater than 100 µM and the TGI (HT29 colon) was greater than 100 µM. The TGI (MOLT-4 leukemia) was greater than 100 µM, the TGI (UACC-257 melanoma) was greater than 100 µM and the TGI (HOP-18 NSCLC) was greater than 100 µM. It also gave a TGI (SNB-19 CNS) greater than 100 µM, a TGI (COLO 205 colon) greater than 100 µM and a TGI (U251 CNS) greater than 96.5 µM. It also gave a TGI (M19-MEL melanoma) greater than 100 µM, a TGI (NCI-H522 lung) greater than 100 µM and a TGI (SF-268 CNS) of 50.3 µM. The TGI (M14 melanoma) was greater than 100 µM, the TGI (KM12 colon) was greater than 100 µM and the TGI (HL-60(TB) leukemia) was greater than 100 µM. The TGI (OVCAR-4 ovarian) was greater than 100 µM, the TGI (OVCAR-8 ovarian) was greater than 62.2 µM and the TGI (SK-MEL-5 melanoma) was greater than 100 µM. The TGI (RPMI-8226 leukemia) was greater than 100 µM, the TGI (CAKI-1 renal) was greater than 100 µM and the TGI (HOP-92 NSCLC) was 81 µM. It also gave a TGI (HCT-15 colon) greater than 100 µM, a TGI (SW-620 colon) greater than 100 µM and a TGI (NCI-H226 lung) of 77.4 µM. For the same molecule, the TGI (SNB-75 CNS) was 46.4 µM, the TGI (SK-MEL-2 melanoma) was greater than 92.3 µM and the TGI (HCC-2998 colon) was greater than 100 µM. For the same molecule, the TGI (LXFL 529 NSCLC) was greater than 100 µM, the TGI (NCI-H460 lung) was greater than 100 µM and the TGI (RXF-631 renal) was greater than 100 µM. For the same molecule, the TGI (OVCAR-5 ovarian) was greater than 100 µM, the TGI (XF 498 CNS) was greater than 61.2 µM and the TGI (HCT-116 colon) was greater than 100 µM. It also gave a TGI (LOX IMVI melanoma) greater than 100 µM, a TGI (SR leukemia) greater than 100 µM and a TGI (K-562 leukemia) greater than 100 µM. The TGI (ACHN renal) was greater than 100 µM, the TGI (IGROV1 ovarian) was greater than 100 µM and the TGI (SF-539 CNS) was greater than 64.6 µM. It also gave a TGI (786-0 renal) greater than 100 µM, a TGI (SF-295 CNS) greater than 87.4 µM and a TGI (UACC-62 melanoma) greater than 100 µM. The TGI (CCRF-CEM leukemia) was greater than 100 µM, the TGI (NCI-H23 lung) was greater than 100 µM and the TGI (MALME-3M melanoma) was greater than 100 µM. For the same molecule, the TGI (A549 NSCLC) was greater than 100 µM, the TGI (SN12C renal) was greater than 100 µM and the TGI (SNB-78 CNS) was greater than 100 µM. The TGI (DMS 273 small cell lung) was greater than 100 µM, the TGI (EKVX NSCLC) was greater than 100 µM and the TGI (SK-OV-3 ovarian) was 90.5 µM.
With `O=C(/C=C/c1ccc(O)cc1)OC[C@@H](O)COC1OC(CO)C(O)C(O)C1O` (stereo not given in full) the TGI (HOP-62 NSCLC) was greater than 100 µM, the TGI (UO-31 renal) was greater than 100 µM and the TGI (RXF 393 renal) was greater than 100 µM. The TGI (TK-10 renal) was greater than 100 µM, the TGI (SK-MEL-28 melanoma) was greater than 100 µM and the TGI (A498 renal) was greater than 100 µM. The TGI (HT29 colon) was greater than 100 µM, the TGI (MOLT-4 leukemia) was greater than 100 µM and the TGI (UACC-257 melanoma) was greater than 100 µM. For the same molecule, the TGI (SNB-19 CNS) was greater than 100 µM, the TGI (U251 CNS) was greater than 100 µM and the TGI (M19-MEL melanoma) was greater than 100 µM. It also gave a TGI (NCI-H522 lung) greater than 100 µM, a TGI (M14 melanoma) greater than 100 µM and a TGI (KM12 colon) greater than 100 µM. It also gave a TGI (HL-60(TB) leukemia) greater than 100 µM, a TGI (OVCAR-8 ovarian) greater than 100 µM and a TGI (HOP-92 NSCLC) greater than 100 µM. The TGI (NCI-H226 lung) was greater than 100 µM, the TGI (NCI-H460 lung) was greater than 100 µM and the TGI (DMS 114 small cell lung) was greater than 100 µM. The TGI (RXF-631 renal) was greater than 100 µM, the TGI (OVCAR-5 ovarian) was greater than 100 µM and the TGI (HCT-116 colon) was greater than 100 µM. For the same molecule, the TGI (SR leukemia) was greater than 100 µM, the TGI (K-562 leukemia) was greater than 100 µM and the TGI (ACHN renal) was greater than 100 µM. For the same molecule, the TGI (IGROV1 ovarian) was greater than 100 µM, the TGI (SF-295 CNS) was greater than 100 µM and the TGI (CCRF-CEM leukemia) was greater than 100 µM. It also gave a TGI (NCI-H23 lung) greater than 100 µM, a TGI (A549 NSCLC) greater than 100 µM and a TGI (SNB-78 CNS) greater than 100 µM. It also gave a TGI (EKVX NSCLC) greater than 100 µM and a TGI (SK-OV-3 ovarian) greater than 100 µM.
